# Reference: the CheMixHub viscosity set
# ± gives the uncertainty stated by the source.
# Assay: xn = mol fraction of the nth substance listed
# Conditions: 101 kPa
compound,measurement,setting,value
Clc1ccccc1 + Cc1ccc(C)cc1,viscosity,"293.15 K, x1 = 0.1144",0.598 ± 0.011 mPa·s
same,viscosity,"293.15 K, x1 = 0.2316",0.621 ± 0.011 mPa·s
same,viscosity,"293.15 K, x1 = 0.337",0.641 ± 0.011 mPa·s
same,viscosity,"293.15 K, x1 = 0.4432",0.657 ± 0.012 mPa·s
same,viscosity,"293.15 K, x1 = 0.5417",0.673 ± 0.012 mPa·s
same,viscosity,"293.15 K, x1 = 0.6319",0.687 ± 0.012 mPa·s
same,viscosity,"293.15 K, x1 = 0.7398",0.706 ± 0.012 mPa·s
same,viscosity,"293.15 K, x1 = 0.8385",0.722 ± 0.013 mPa·s
same,viscosity,"293.15 K, x1 = 0.9124",0.734 ± 0.013 mPa·s
same,viscosity,"298.15 K, x1 = 0.1363",0.57 ± 0.01 mPa·s
same,viscosity,"298.15 K, x1 = 0.2224",0.585 ± 0.011 mPa·s
same,viscosity,"298.15 K, x1 = 0.3453",0.608 ± 0.011 mPa·s
same,viscosity,"298.15 K, x1 = 0.4555",0.625 ± 0.011 mPa·s
same,viscosity,"298.15 K, x1 = 0.5832",0.645 ± 0.012 mPa·s
same,viscosity,"298.15 K, x1 = 0.6956",0.667 ± 0.012 mPa·s
same,viscosity,"298.15 K, x1 = 0.7881",0.679 ± 0.012 mPa·s
same,viscosity,"298.15 K, x1 = 0.9065",0.695 ± 0.012 mPa·s
same,viscosity,"303.15 K, x1 = 0.1144",0.534 ± 0.01 mPa·s
same,viscosity,"303.15 K, x1 = 0.2318",0.55 ± 0.01 mPa·s
same,viscosity,"303.15 K, x1 = 0.3419",0.572 ± 0.011 mPa·s
same,viscosity,"303.15 K, x1 = 0.4624",0.587 ± 0.011 mPa·s
same,viscosity,"303.15 K, x1 = 0.5653",0.602 ± 0.011 mPa·s
same,viscosity,"303.15 K, x1 = 0.6803",0.615 ± 0.011 mPa·s
same,viscosity,"303.15 K, x1 = 0.7947",0.635 ± 0.011 mPa·s
same,viscosity,"303.15 K, x1 = 0.9082",0.649 ± 0.012 mPa·s
Clc1ccccc1 + Cc1cccc(C)c1,viscosity,"293.15 K, x1 = 0.1317",0.622 ± 0.011 mPa·s
same,viscosity,"293.15 K, x1 = 0.2304",0.64 ± 0.011 mPa·s
same,viscosity,"293.15 K, x1 = 0.3342",0.658 ± 0.012 mPa·s
same,viscosity,"293.15 K, x1 = 0.4457",0.675 ± 0.012 mPa·s
same,viscosity,"293.15 K, x1 = 0.5734",0.692 ± 0.012 mPa·s
same,viscosity,"293.15 K, x1 = 0.6411",0.7 ± 0.012 mPa·s
same,viscosity,"293.15 K, x1 = 0.7297",0.715 ± 0.013 mPa·s
same,viscosity,"293.15 K, x1 = 0.8241",0.725 ± 0.013 mPa·s
same,viscosity,"293.15 K, x1 = 0.9089",0.737 ± 0.013 mPa·s
same,viscosity,"298.15 K, x1 = 0.115",0.587 ± 0.011 mPa·s
same,viscosity,"298.15 K, x1 = 0.2331",0.605 ± 0.011 mPa·s
same,viscosity,"298.15 K, x1 = 0.3319",0.621 ± 0.011 mPa·s
same,viscosity,"298.15 K, x1 = 0.465",0.641 ± 0.012 mPa·s
same,viscosity,"298.15 K, x1 = 0.565",0.655 ± 0.012 mPa·s
same,viscosity,"298.15 K, x1 = 0.6929",0.671 ± 0.012 mPa·s
same,viscosity,"298.15 K, x1 = 0.7812",0.685 ± 0.012 mPa·s
same,viscosity,"298.15 K, x1 = 0.9072",0.697 ± 0.012 mPa·s
same,viscosity,"303.15 K, x1 = 0.1144",0.55 ± 0.01 mPa·s
same,viscosity,"303.15 K, x1 = 0.2301",0.571 ± 0.01 mPa·s
same,viscosity,"303.15 K, x1 = 0.3415",0.585 ± 0.011 mPa·s
same,viscosity,"303.15 K, x1 = 0.4598",0.605 ± 0.011 mPa·s
same,viscosity,"303.15 K, x1 = 0.562",0.615 ± 0.011 mPa·s
same,viscosity,"303.15 K, x1 = 0.6931",0.63 ± 0.011 mPa·s
same,viscosity,"303.15 K, x1 = 0.8136",0.645 ± 0.012 mPa·s
same,viscosity,"303.15 K, x1 = 0.904",0.651 ± 0.012 mPa·s
same,viscosity,"308.15 K, x2 = 0.0886",0.661 ± 0.011 mPa·s
same,viscosity,"308.15 K, x2 = 0.2076",0.6411 ± 0.011 mPa·s
same,viscosity,"308.15 K, x2 = 0.3076",0.6254 ± 0.011 mPa·s
same,viscosity,"308.15 K, x2 = 0.4147",0.6081 ± 0.011 mPa·s
same,viscosity,"308.15 K, x2 = 0.5146",0.5927 ± 0.01 mPa·s
same,viscosity,"308.15 K, x2 = 0.6138",0.578 ± 0.01 mPa·s
same,viscosity,"308.15 K, x2 = 0.715",0.562 ± 0.01 mPa·s
same,viscosity,"308.15 K, x2 = 0.8146",0.5474 ± 0.0098 mPa·s
same,viscosity,"308.15 K, x2 = 0.9338",0.5309 ± 0.0096 mPa·s
same,viscosity,"313.15 K, x2 = 0.0886",0.6235 ± 0.011 mPa·s
same,viscosity,"313.15 K, x2 = 0.2076",0.6053 ± 0.011 mPa·s
same,viscosity,"313.15 K, x2 = 0.3076",0.5896 ± 0.01 mPa·s
same,viscosity,"313.15 K, x2 = 0.4147",0.5741 ± 0.01 mPa·s
same,viscosity,"313.15 K, x2 = 0.5146",0.5604 ± 0.01 mPa·s
same,viscosity,"313.15 K, x2 = 0.6138",0.5458 ± 0.0098 mPa·s
same,viscosity,"313.15 K, x2 = 0.715",0.5302 ± 0.0096 mPa·s
same,viscosity,"313.15 K, x2 = 0.8146",0.5163 ± 0.0094 mPa·s
same,viscosity,"313.15 K, x2 = 0.9338",0.5007 ± 0.0092 mPa·s
